The subject of one assay is NIH/3T3 cells. Put plainly: NIH/3T3 Cell Morphology Assay (actin disruption). The settings on record: 1 μM test compound, 60 minutes at 37° C.; score of actin cytoskeleton disruption from 0 (no effect) to 4 (complete disruption), average of at least 2 determinations. Type of assay: cell-based. The procedure:
NIH/3T3 cells were grown in DMEM-H containing glutamine and 10% Colorado Calf Serum. Cells were passaged regularly prior to reaching confluence. Eighteen to 24 hours prior to experimentation, the cells were plated onto Poly-L-Lysine-coated glass bottom 24-well plates. On the day of experimentation, the cell culture medium was removed and was replaced with the same medium containing from 10 nM to 25 μM of the test compound, and the cells were incubated for 60 minutes at 37° C. The culture medium was then removed and the cells were washed with warmed PBS and fixed for 10 minutes with warmed 4% paraformaldehyde. The cells were permeabilized with 0.5% Triton-X, stained with TRITC-conjugated phalloidin and imaged using a Nikon Eclipse E600 epifluorescent microscope to determine the degree of actin disruption. Results were expressed as a numerical score indicating the observed degree of disruption of the actin cytoskeleton at the test concentration, ranging from 0 (no effect) to 4 (complete disruption), and were the average of at least 2 determinations.
All compounds tested show measurable activity in the cell morphology assay, with most of the compounds providing substantial effects on the actin cytoskeleton at the testing concentration (score of 2 at 1 μM). […] These morphology changes are thought to provide the basis for the beneficial pharmacological effects sought in the setting of the disease processes described in this application, specifically the lowering of elevated IOP in hypertensive eyes via increased outflow through the trabecular meshwork.

The next assay concerns the target ROCK2 (Homo sapiens (Human), UniProt O75116). Put plainly: Rho Kinase Inhibition Assay (IMAP fluorescence polarization). The format is biochemical. Conditions: isolated enzyme, 10 μM ATP, 60 minutes at room temperature.

Structures are written as SMILES.

ROCK2, sequence (O75116 11-552): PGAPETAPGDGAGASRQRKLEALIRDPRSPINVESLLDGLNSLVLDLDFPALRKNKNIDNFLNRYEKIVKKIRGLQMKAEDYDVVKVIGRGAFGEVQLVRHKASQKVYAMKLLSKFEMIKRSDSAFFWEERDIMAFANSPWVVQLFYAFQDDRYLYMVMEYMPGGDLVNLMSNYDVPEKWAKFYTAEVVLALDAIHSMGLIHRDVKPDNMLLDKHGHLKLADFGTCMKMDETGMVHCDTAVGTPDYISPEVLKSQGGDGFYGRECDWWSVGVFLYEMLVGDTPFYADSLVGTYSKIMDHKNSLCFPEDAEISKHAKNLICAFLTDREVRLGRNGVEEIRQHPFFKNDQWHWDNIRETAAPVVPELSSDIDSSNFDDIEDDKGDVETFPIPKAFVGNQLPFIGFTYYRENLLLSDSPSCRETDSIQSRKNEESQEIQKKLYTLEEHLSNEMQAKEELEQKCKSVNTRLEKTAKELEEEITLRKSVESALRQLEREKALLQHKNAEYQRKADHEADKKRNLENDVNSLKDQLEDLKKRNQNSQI

For `N#Cc1cccc(CN2CCCC(Nc3ccc4[nH]ncc4c3)C2)c1` (stereo not shown) [Compound 1.002, 3-((3-(1H-indazol-5-ylamino)piperidin-1-yl)methyl)benzonitrile], the “Cell score at 1 μM” value in the assay on NIH/3T3 cells is reported as 1.4. Besides, at ROCK2, it took 1230 nM to reach half-maximal inhibition (IC50).

For the compound `CC(=O)Nc1ccc(CN2CCC(Nc3ccc4[nH]ncc4c3)C2)cc1` (stereo not shown) [Compound 1.006, N-(4-((3-(1H-indazol-5-ylamino)pyrrolidin-1-yl)methyl)phenyl)acetamide], the “Cell score at 1 μM” value in the assay with NIH/3T3 cells was determined as 2. Besides, on ROCK2, the IC50 was 2750 nM.

For `CSc1ccc(CN2CC[C@@H](Nc3cccc4cnccc34)C2)cc1` [Compound 2.026, (R)-N-(1-(4-(methylthio)benzyl)pyrrolidin-3-yl)isoquinolin-5-amine], the “Cell score at 1 μM” value in the assay on NIH/3T3 cells came to 2. At ROCK2, this compound registered an IC50 of 6330 nM.

As for `N#Cc1cccc(CN2CCC(Nc3ccc4[nH]ncc4c3)C2)c1` (stereo not shown) [Compound 1.005, 3-((3-(1H-indazol-5-ylamino)pyrrolidin-1-yl)methyl)benzonitrile], in the assay on NIH/3T3 cells, the “Cell score at 1 μM” value is recorded as 1.3. At ROCK2, this compound displayed an IC50 of 2290 nM.

In the case of `CS(=O)(=O)c1ccc(CN2CCCC(Nc3cccc4cnccc34)C2)cc1` (stereo not shown) [Compound 2.002, N-(1-(4-(methylsulfonyl)benzyl)piperidin-3-yl)isoquinolin-5-amine], the “Cell score at 1 μM” value in the assay on NIH/3T3 cells came out at 1.8. Moreover, the IC50 on ROCK2 amounted to 2580 nM.

Consider `CC(=O)Nc1ccc(CN2CCC(Nc3cccc4cnccc34)C2)cc1` (stereo not shown) [Compound 2.008, N-(4-((3-(isoquinolin-5-ylamino)pyrrolidin-1-yl)methyl)phenyl)acetamide], for which the “Cell score at 1 μM” value with NIH/3T3 cells is on record as 1. Moreover, inhibition against ROCK2 was half-maximal at 3650 nM (IC50).

`NC(=O)Cn1ccc2ccc(CN3CCC[C@@H](Nc4ccc5[nH]ncc5c4)C3)cc21` [Compound 1.106, (R)-2-(6-((3-(1H-indazol-5-ylamino)piperidin-1-yl)methyl)-1H-indol-1-yl)acetamide] returned an IC50 at ROCK2 of 69.2 nM.

The term IC50 denotes the concentration needed to halve the response being measured. Lower therefore signals greater potency in that assay.

These data come from patent US8604218B2, “Cytoskeletal active rho kinase inhibitor compounds, composition and use” (Inspire Pharmaceuticals, Inc., priority 2006, dated 2013).
